Entries after “also recorded” stand apart in the source; their conditions may differ.

We go through eight molecules from patent US11234945B2, “Wound healing composition” (AGENCY FOR SCIENCE, TECHNOLOGY AND RESEARCH, priority 2016, dated 2022).

In test [1] the test system is intestinal epithelial cell. To be noted: rodents, cited from earlier work.
In a further test the test system is AMD1. The experiment in a line: AMD1 up-regulation post scratch (immunofluorescence, western blot). The test is classed as cell-based, human. To be noted: combined pre-treatment: 1 μM Tg 24 hours and 2 mM EGTA 1 hour; 6 hours post scratch. On the procedure: (§1) It was then sought to determine if the up-regulation of AMD1 at the wound-edge was dependent on the wound-induced calcium wave. Human keratinocytes were labelled with the Ca^2+ probe Fluo-4 for 30 minutes prior to scratching to mimic a wound response. […] To assess the impact of a reduced calcium wave on up-regulation of AMD1, cells were pre-treated for 24 hours with 1 μM thapsigargin (Tg) and for 1 hour with 2 mM EGTA prior to scratch to deplete internal calcium stores and extracellular calcium, respectively.
(§2) Keratinocytes were seeded in glass-bottom 35-mm^2 dishes and cultured to full confluency in cell culture media. To deplete intracellular and extracellular Ca^2+ sources, cells were treated with 1 μM thapsigargin (Tg) (Sigma-Aldrich) for 24 hours and 2 mM ethylene glycol tetraacetic acid (EGTA, Sigma-Aldrich) for 1 hour prior to scratch. For Ca^2+ flux imaging, cells were incubated with Fluo-4,AM (Life Technologies; Thermo Fisher Scientific) and imaged with an automated confocal microscope (Spinning disk 3D-FRAP; Nikon Ti) at 0.2 second intervals for 5 minutes. Image analysis was performed using ImageJ software.
A general note: A western blot detects proteins with antibodies after separation by electrophoresis.

The test system of another test is N/TERT-1 keratinocytes. Description: In vitro scratch cell migration assay. The test is classed as cell-based, human. As to conditions: for cell migration / closure of scratch wound: control keratinocytes, 5 μM added 48 h prior to scratch, Incucyte wound width. The method, then: (§3) Human immortalized keratinocytes (Dickson et al., 2000), N/TERT-1 were obtained and cultured in keratinocyte serum-free media (K-SFM; Life Technologies; Thermo Fisher Scientific) supplemented with 25 μg/ml bovine pituitary extract (BPE), 0.2 ng/ml epidermal growth factor (EGF), and 0.3 mM CaCl2, as previously described (Rheinwald et al., 2002). To culture cells to 100% confluence for scratch assays, N/TERT-1 cells were first cultured to 50% confluence in supplemented K-SFM growth medium and then switched to a media with a 1:1 ratio mixture of supplemented K-SFM and DF-K (a mixture of calcium free, glutamine free DMEM (Hyclone; GE Healthcare) with Ham's F-12/GlutaMAX (Gibco; Life Technologies; Thermo Fisher Scientific) at 1:1 (vol/vol) supplemented with 5 μg/ml BPE, 0.2 ng/ml EGF, and 1.5 mM L-glutamine (Life Technologies; Thermo Fisher Scientific)) until 100% confluent. Human HEK293T cells (Dharmacon; GE Healthcare) were used for lentiviral production as the packaging cell line and cultured in high glucose DMEM (Hyclone; GE Healthcare) with 10% fetal calf serum. All cells were grown in a humidified incubator with 5% CO2 at 37° C.
In Vitro Scratch Cell Migration Assay
Confluent keratinocytes on ImageLock 96-well microplates (Essen BioScience, Inc) were scratched using a 96-pin wound maker (Essen BioScience, Inc) to create homogeneous, 700-800-μm wide scratch wounds in cell monolayers. Scratched cells were imaged using a real-time cell imaging system, IncuCyte, (Essen BioScience, Inc) to monitor cell migration. Putrescine, spermidine, or spermine (5 μM, Sigma-Aldrich) were added to cells and incubated for 48 h prior to scratch. For analysis of protein and RNA expression in migrating cells, keratinocytes were cultured to full confluency in a 6-well culture dish (Corning Costar) and scratched with the large end of a 1-mL pipette tip. At specific time points, the cells were either harvested in lysis buffer (150 mM sodium chloride, 1% (v/v) Triton X-100, 0.5% sodium deoxycholate, 1% (v/v) sodium dodecyl sulfate, 50 mM Tris-HCl, 1% (v/v) Nonidet P-40 (NP-40), 0.1 mM phenylmethylsulfonyl fluoride (PMSF), 5 mM EDTA, and 1% (v/v) protease and phosphatase inhibitor cocktail) for western blot or Trizol reagent (Life Technologies; Thermo Fisher Scientific) for RNA analysis.

Test [2] deals with scratch-induced calcium wave in keratinocytes. Description: Calcium wave imaging after scratch (Fluo-4). The test is classed as cell-based, human. To be noted: combined pre-treatment: 1 μM Tg 24 hours and 2 mM EGTA 1 hour prior to scratch. On the procedure: as §1, §2
Another test relates to human ex vivo wounds. Description: Human ex vivo excisional skin wounds, epithelial tongue length. The test is classed as cell-based. As to conditions: 500 μM topically every 24 hours for 3 days; examined after 72 hours; PBS control. An excerpt:
Human skin samples were sourced from Dr T. C. Lim at the Yong Loo Lin School of Medicine, National University of Singapore. Written consent from participants was obtained in all cases. The study was done in accordance with the declaration of Helsinki and was approved by a local scientific ethics review board. The skin was further dissected into 6-mm cubes or circles. Excisional skin wounds of approximately 3 to 4 mm were made with surgical scissors. The ex vivo wounded skin explants were cultured at the air-liquid interface and treated topically with 500 μM of putrescine, spermidine, spermine or 1× phosphate-buffered saline (PBS) every 24 hours for 3 days. Non-wounded skin, day 0- and day 3-wounded biopsies were bisected, with half snap-frozen in Optimal Cutting Temperature Compound (OCT) and the other half fixed in 10% buffered formalin saline and embedded in paraffin for histological analysis.
Histological sections were prepared from wound tissue embedded in paraffin or snap-frozen in OCT. […] Images were acquired using a fluorescence microscope (Zeiss AxioImager Z1; Carl Zeiss). […]

The test system of the next test is sh-AMD1 keratinocytes. As to conditions: supplementation in cell culture media, listed as Spermine. The method, then: as §3
Confluent keratinocytes on ImageLock 96-well microplates (Essen BioScience, Inc) were scratched using a 96-pin wound maker (Essen BioScience, Inc) to create homogeneous, 700-800-μm wide scratch wounds in cell monolayers. […]

As to `NCCCC(N)(C(=O)O)C(F)F` (racemic) [DFMO, (RS)-2,5-diamino-2-(difluoromethyl)pentanoic acid], the “intestinal epithelial cell migration and proliferation” value in test [1] (ODC1 inhibition) is “prevents intestinal epithelial cell migration and proliferation”.

With `O=C(O)CN(CCN(CC(=O)O)CC(=O)O)CC(=O)O` [EDTA], in the test on AMD1, the “AMD1 up-regulation in scratched cells” value is “completely abrogates AMD1 protein up-regulation”.

On to `CCC(/C=N/N=C(N)N)=N\N=C(N)N` [EGBG, reference compound], for which the “cell migration after AMD1 inhibitor” value with N/TERT-1 keratinocytes (data not shown, concentration not given) is “resulted in a similar delay in cell migration”.

With `O=C(O)CN(CCOCCOCCN(CC(=O)O)CC(=O)O)CC(=O)O` [EGTA, ethylene glycol tetraacetic acid], the “propagation of calcium wave upon scratch” value in test [2] was “effectively prevented the calcium wave”. Besides, in the test on AMD1, the “AMD1 up-regulation in scratched cells” value is listed as “completely abrogated”.

As for `NCCCCN` [putrescine, butane-1,4-diamine, reference compound], the “cell migration / closure of scratch wound” value is “significantly impedes cell migration” in the test on N/TERT-1 keratinocytes; “caused an inhibition of keratinocyte migration and a delay in closure of the scratch wound” in the test on N/TERT-1 keratinocytes (listed as Putrescine). For the same molecule, the “rescue of DFMO effect on intestinal epithelial cell migration and proliferation” value in test [1] (supplementation after DFMO) is given as “can be rescued through supplementation with putrescine”.

Take `NCCCCNCCCN` [spermidine, 1,4-butanediamine, N-(3-aminopropyl)]: the “epithelial tongue migration / wound repair” value in the test on human ex vivo wounds is listed as “promoted a striking improvement in epithelial tongue migration; also recorded: promote wound repair of excisional human skin wounds”.

For the molecule `NCCCNCCCCNCCCN` [spermine, 1,4-butanediamine, N,N′-bis(3-aminopropyl)], the “cell migration / closure of scratch wound” value with N/TERT-1 keratinocytes was “promoted scratch wound closure in the control cells; also recorded: sufficient to drive increased cell migration”; in the test on N/TERT-1 keratinocytes (listed as Spermine) it was “promotes the closure of scratch wounds in keratinocytes”. In addition, in the test on N/TERT-1 keratinocytes (keratinocytes treated with EGBG, data not shown), the “rescue of EGBG-induced delay in cell migration” value was “similarly rescued by the addition of spermine”. For the same molecule, in the test with sh-AMD1 keratinocytes, the “restoration of impaired cell migration in AMD1-knockdown keratinocytes” value is “restores impaired cell migration in sh-AMD1 keratinocytes”. The “epithelial tongue migration / wound repair” value with human ex vivo wounds is on record as “promoted a striking improvement in epithelial tongue migration; also recorded: promote wound repair of excisional human skin wounds”.

As for `C/C=C(/C)C(=O)O[C@H]1C(C)=C2[C@H]([C@@H]1OC(=O)CCCCCCC)[C@@](C)(OC(C)=O)C[C@H](OC(=O)CCC)[C@@]1(O)[C@H]2OC(=O)[C@@]1(C)O` [thapsigargin], the “propagation of calcium wave upon scratch” value in test [2] is listed as “effectively prevented the calcium wave”. For the same molecule, the “AMD1 up-regulation in scratched cells” value in the test on AMD1 is “completely abrogated; also recorded: completely abrogates AMD1 protein up-regulation”.
